# Activity calls are given as the source filed them. No cut-off for these calls is given here.
# Legend:
# Type in all cases: functional
# [1] = Cytotoxicity against human OVCAR8 cells at 10 uM after 48 hrs by SRB assay; conditions: OVCAR-8, 48 h, read-out: GI
# SK-MEL-5 = assay: Cytotoxicity against human SK-MEL-5 cells at 10 uM after 48 hrs by SRB assay; conditions: SK-MEL-5, 48 h, read-out: GI
# [2] = Cytotoxicity against human PC3 cells at 10 uM after 48 hrs by SRB assay; conditions: PC-3, 48 h, read-out: GI
# NCI-H23 = assay: Cytotoxicity against human NCI-H23 cells at 10 uM after 48 hrs by SRB assay; conditions: NCI-H23, 48 h, read-out: GI
# SN12C = assay: Cytotoxicity against human SN12C cells at 10 uM after 48 hrs by SRB assay; conditions: read-out: GI
# [3] = Cytotoxicity against human Caki1 cells at 10 uM after 48 hrs by SRB assay; conditions: CAKI-1, 48 h, read-out: GI
# [4] = (§1) Cytotoxicity against human UACC257 cells at 10 uM after 48 hrs by SRB assay; conditions: UACC-257, 48 h, read-out: GI
# HCC 2998 = assay: (§2) Cytotoxicity against human HCC2998 cells at 10 uM after 48 hrs by SRB assay
# M14 = assay: Cytotoxicity against human M14 cells at 10 uM after 48 hrs by SRB assay
# [5] = Cytotoxicity against human SF268 cells at 10 uM after 48 hrs by SRB assay; conditions: SF-268, 48 h, read-out: GI
# CCRF-CEM [6] = assay: Cytotoxicity against human CCRF-CEM cells at 10 uM after 48 hrs by SRB assay; conditions: read-out: GI
# [7] = Cytotoxicity against human COLO205 cells at 10 uM after 48 hrs by SRB assay; conditions: COLO 205, 48 h, read-out: GI
# A498 = assay: Cytotoxicity against human A498 cells at 10 uM after 48 hrs by SRB assay
# [8] = Cytotoxicity against human LOXIMVI cells at 10 uM after 48 hrs by SRB assay; conditions: LOX IMVI, read-out: GI
# [9] = (§3) Cytotoxicity against human UACC62 cells at 10 uM after 48 hrs by SRB assay; conditions: UACC-62, 48 h, read-out: GI
# [10] = Cytotoxicity against human DU145 cells at 10 uM after 48 hrs by SRB assay; conditions: DU-145, 48 h, read-out: GI
# OVCAR-4 = assay: (§4) Cytotoxicity against human OVCAR4 cells at 10 uM after 48 hrs by SRB assay
# [11] = Cytotoxicity against human BT549 cells at 10 uM after 48 hrs by SRB assay; conditions: BT-549, 48 h, read-out: GI
# [12] = Cytotoxicity against human HOP62 cells at 10 uM after 48 hrs by SRB assay; conditions: HOP-62, 48 h, read-out: GI
# MDA-MB-231 = assay: Cytotoxicity against human MDA-MB-231 cells at 10 uM after 48 hrs by SRB assay; conditions: MDA-MB-231, 48 h, read-out: GI
# [13] = Cytotoxicity against human TK10 cells at 10 uM after 48 hrs by SRB assay; conditions: TK-10, 48 h, read-out: GI
# [14] = Cytotoxicity against human UO31 cells at 10 uM after 48 hrs by SRB assay; conditions: UO-31, 48 h, read-out: GI
# SK-MEL-2 = assay: Cytotoxicity against human SK-MEL-2 cells at 10 uM after 48 hrs by SRB assay; conditions: SK-MEL-2, 48 h, read-out: GI
# [15] = Cytotoxicity against human SW620 cells at 10 uM after 48 hrs by SRB assay; conditions: SW-620, 48 h, read-out: GI
# [16] = (§5) Cytotoxicity against human SF295 cells at 10 uM after 48 hrs by SRB assay; conditions: SF-295, 48 h, read-out: GI
# [17] = Cytotoxicity against human Hs 578T cells at 10 uM after 48 hrs by SRB assay; conditions: read-out: GI
# [18] = Cytotoxicity against human SKOV3 cells at 10 uM after 48 hrs by SRB assay; conditions: SK-OV-3, 48 h, read-out: GI
# [19] = Cytotoxicity against human RPMI8226 cells at 10 uM after 48 hrs by SRB assay; conditions: RPMI-8226, 48 h, read-out: GI
# HCT-15 = assay: Cytotoxicity against human HCT15 cells at 10 uM after 48 hrs by SRB assay
# SK-MEL-28 = assay: Cytotoxicity against human SK-MEL-28 cells at 10 uM after 48 hrs by SRB assay
# CCRF-CEM [20] = assay: Cytotoxicity against human CCRF-CEM cells after 48 hrs by SRB assay
# K562 = assay: Cytotoxicity against human K562 cells after 48 hrs by SRB assay; conditions: K562, 48 h
# UACC-257 = assay: as §1
# [21] = as §2; conditions: HCC 2998, 48 h, read-out: GI
# [22] = Cytotoxicity against human LOXIMVI cells after 48 hrs by SRB assay; conditions: LOX IMVI, pooled result: one value given for 9 cell lines, strains, targets or settings
# [23] = Cytotoxicity against human SF268 cells after 48 hrs by SRB assay; conditions: SF-268, 48 h, pooled result: one value given for 6 cell lines, strains, targets or settings
# UACC-62 = assay: as §3
# [24] = as §4; conditions: OVCAR-4, 48 h, read-out: GI
# [25] = Cytotoxicity against human DU145 cells after 48 hrs by SRB assay; conditions: DU-145, 48 h, read-out: LC50 (the source's name)
# [26] = Cytotoxicity against human MOLT4 cells after 48 hrs by SRB assay; conditions: MOLT-4, 48 h, read-out: LC50 (the source's name)
# SF-295 = assay: as §5
# [27] = pooled result: one value given for 6 cell lines, strains, targets or settings
structure (smiles),measurement,setting,value
Cc1nc2ccc(Nc3nc(NCCN)nc(Nc4ccc(F)cc4)n3)cc2n1Cc1ccccc1,inhibition of growth at 10 µM,[1],17.7%
same,inhibition of growth at 10 µM,SK-MEL-5,25.5%
same,inhibition of growth at 10 µM,[2],26.9%
same,inhibition of growth at 10 µM,NCI-H23,10.4%
same,inhibition of growth at 10 µM,SN12C,24.8%
same,inhibition of growth at 10 µM,[3],1.79%
same,inhibition of growth at 10 µM,[4],15.9%
same,growth inhibition (GI),HCC 2998,inactive
same,inhibition of growth at 10 µM,"M14; M14, 48 h, read-out: GI",16.4%
same,inhibition of growth at 10 µM,[5],19.2%
same,inhibition of growth at 10 µM,CCRF-CEM [6],51.9%
same,inhibition of growth at 10 µM,[7],33.6%
same,inhibition of growth at 10 µM,"A498; A498, 48 h, read-out: GI",25.5%
same,inhibition of growth at 10 µM,[8],30%
same,inhibition of growth at 10 µM,[9],9.33%
same,inhibition of growth at 10 µM,[10],8.56%
same,growth inhibition (GI),OVCAR-4,inactive
same,inhibition of growth at 10 µM,[11],17%
same,inhibition of growth at 10 µM,[12],20.6%
same,inhibition of growth at 10 µM,MDA-MB-231,42.9%
same,inhibition of growth at 10 µM,[13],26.1%
same,inhibition of growth at 10 µM,[14],13.7%
same,inhibition of growth at 10 µM,SK-MEL-2,19.9%
same,inhibition of growth at 10 µM,[15],1.71%
same,inhibition of growth at 10 µM,[16],11.6%
same,inhibition of growth at 10 µM,[17],20.5%
same,inhibition of growth at 10 µM,[18],13.2%
same,inhibition of growth at 10 µM,[19],46.2%
same,growth inhibition (GI),HCT-15,inactive
Cc1nc2ccc(Nc3nc(NCCN4CCOCC4)nc(Nc4ccc(F)cc4)n3)cc2n1Cc1ccccc1,inhibition of growth at 10 µM,[1],49.9%
same,growth inhibition (GI),SK-MEL-28,Active
same,LC50,CCRF-CEM [20],55 µM
same,GI50,CCRF-CEM [20]; [27],1.96 µM
same,TGI,CCRF-CEM [20]; [27],6.82 µM
same,inhibition of growth at 10 µM,SK-MEL-5,85.8%
same,LC50,K562,55 µM
same,inhibition of growth at 10 µM,[2],28.5%
same,inhibition of growth at 10 µM,NCI-H23,33%
same,inhibition of growth at 10 µM,SN12C,38.1%
same,inhibition of growth at 10 µM,[3],44.4%
same,growth inhibition (GI),UACC-257,Active
same,inhibition of growth at 10 µM,[21],55.4%
same,growth inhibition (GI),M14,Active
same,inhibition of growth at 10 µM,[5],37.2%
same,inhibition of growth at 10 µM,CCRF-CEM [6],70.5%
same,GI50,[22],1.91 µM
same,LC50,[22],24.2 µM
same,TGI,[22],4.08 µM
same,inhibition of growth at 10 µM,[7],98.8%
same,GI50,[23],2.72 µM
same,LC50 (concentration killing 50% of cells),[23],15.3 µM
same,TGI,[23],12 µM
same,growth inhibition (GI),A498,Active
same,inhibition of growth at 10 µM,[8],94.3%
same,growth inhibition (GI),UACC-62,Active
same,inhibition of growth at 10 µM,[10],40.8%
same,inhibition of growth at 10 µM,[24],1.85%
same,CC50,[25],62.5 µM
same,inhibition of growth at 10 µM,[11],50.1%
same,inhibition of growth at 10 µM,[12],52.2%
same,inhibition of growth at 10 µM,MDA-MB-231,66.7%
same,inhibition of growth at 10 µM,[13],39.4%
same,inhibition of growth at 10 µM,[14],62.7%
same,CC50,[26],55 µM
same,inhibition of growth at 10 µM,[15],57.6%
same,growth inhibition (GI),SF-295,Active
same,inhibition of growth at 10 µM,[17],59.4%
same,inhibition of growth at 10 µM,[18],21%
same,inhibition of growth at 10 µM,[19],96.9%
same,growth inhibition (GI),HCT-15,Active

# Reference: ChEMBL document CHEMBL3745645, “Synthesis, in vitro antitumor activity, dihydrofolate reductase inhibition, DNA intercalation and structure-activity relationship studies of 1,3,5-triazine analogues” (Bioorg Med Chem Lett, 2016)
